Changes are numbered by the printed parent chain. Values joined by “and” are separate entries in the source; they are usually repeats but may differ in a detail not shown here. Identical values can stand only once.
Legend:
R120G cryAB [1] = biological target: T1, R120G cryAB (Homo sapiens, UniProt P02511, R120G); assay: Differential scanning fluorimetry (DSF), shift of apparent Tm; type: binding; conditions: DSF with R120G cryAB; for ACTIVITY (shift in thermal stability at 100 μM): 100 μM compound
T1 sequence (P02511 1-175 R120G): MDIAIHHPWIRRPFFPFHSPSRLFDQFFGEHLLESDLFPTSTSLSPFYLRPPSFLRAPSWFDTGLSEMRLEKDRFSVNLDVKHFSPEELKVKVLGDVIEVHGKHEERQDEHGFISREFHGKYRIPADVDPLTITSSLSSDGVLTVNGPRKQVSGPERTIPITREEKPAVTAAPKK
Method: Differential scanning fluorimetry (DSF) was utilized to identify compounds that stabilize cryAB. In DSF experiments, the melting transition (Tm) of the protein target is measured in the presence of potential ligands (Cummings et al., J Biomol Screen 11, 854 (2006). DSF measures thermal unfolding of the target protein via the fluorescence of intrinsic tryptophans, or (more commonly) a dye, such as 1,8-anilinonapthalenesulfonic (bis-ANS) or Sypro Orange. Binding of a ligand adds free energy to the folded state or key intermediates, which limits unfolding and shifts the apparent Tm. These values are used to calculate the unfolding transition. When compounds bind to the target prior to heating, they stabilize against unfolding, shifting the ΔTm. […] (3).

R120G cryAB [2] = biological target: T1, R120G cryAB; assay: 15N HSQC NMR binding site mapping; conditions: 15N HSQC NMR chemical shifts
R120G cryAB [3] = biological target: T1, R120G cryAB; assay: Biolayer interferometry (Octet Red); type: binding; conditions: biotinylated cryAB on streptavidin-coated pins, equilibrium association data
Method: Measuring affinity for the test protein by biolayer interferometry (Octet Red) allows for the identification of false positives. Briefly, biotinylated cryAB is immobilized to streptavidin-coated pins and equilibrium association data across a hundred-fold concentration range is analyzed to generate the apparent KD. To control for nonspecific binding, the response of a biocytin-blocked pin is subtracted from each sensorgram.

cryAB = biological target: T2, cryAB (Mus musculus, UniProt P23927, R120G); assay: Excised eyes from R120G cryAB knock-in mice treated with compound; conditions: 100 μM, versus saline control
T2 construct: from tissue; host or cells: excised eyes of R120G cryAB knock-in mice
T2 sequence (P23927 1-175 R120G): T1 sequence (P02511 1-175 R120G) with P39S, S41A, F61I, T170A
Method: The R120G cryAB knock-in mouse is a clinically-acceptable model of aging-associated and hereditary cataract. The animal model develops severe cataracts within 20 weeks (Andley et al., PLoS One 6, e17671 (2011)). Excised eyes from these mice were treated with 5-cholesten-3b,25-diol (100 μM) or a saline control.

α-crystallin = assay: Gel filtration (GPC) analysis of α-crystallin solubility, treated versus fellow untreated eye; type: in vivo, mice
Method: 5-cholesten-3b,25-diol formulated in a saline-cyclodextrin solution (5 mM cyclodextran; 5 mM 5-cholesten-3b,25-diol) was delivered by eye dropper three times a week for two weeks to live mice (n=15). Gel filtration analysis of α-crystallin solubility was conducted by processing samples as previously described by Andley et al. (PLoS ONE, 6:3, 1-13 (2011)). Briefly, degree of aggregation of α-crystallin was determined using gel permeation chromatography (GPC) with light scattering and refractive index (RI) measurements. All data were analyzed using SAS version 9.3 (SAS Institute; Cary, N.C.). To control for differences in assay sensitivity among animals, the area under the curve for α-crystallin in the drug treated eye was compared to the area under the curve generated from the fellow untreated eye and expressed as “percent” difference in area using the untreated eye as the denominator. The percent difference between treated and untreated eyes was compared using the Wilcoxon signed rank test for the null hypothesis of no difference. The association between age and percent difference was calculated using the Spearman rank correlation coefficient. Non-parametric statistical models were used to protect from departures from normality.

[4] = system: R120G cryAB knock-in mice; assay: Eye drops to live R120G cryAB knock-in mice; slit lens illumination and GPC/light scattering of lens homogenates; type: in vivo, mouse; conditions: 5 mM in saline-cyclodextrin, eye dropper three times a week for two weeks
R120G cryAB [5] = biological target: T1, R120G cryAB; assay: Amyloid formation / aggregation measured by electron microscopy and visual inspection; type: biochemical
Method: To test this idea, R120G cryAB (15 μM) was treated with 5-cholesten-3b,25-diol or cholesterol (100 μM) and its ability to aggregate was measured by electron microscopy.

[6] = R120G cryAB 15 μM, compound 100 μM

## C[C@H](CCCC(C)(C)O)[C@H]1CC[C@H]2[C@@H]3CC=C4C[C@@H](O)CC[C@]4(C)[C@H]3CC[C@]12C [5-cholesten-3b,25-diol]
R120G cryAB [1]
  ACTIVITY (shift in thermal stability at 100 μM): −2.0 °C
R120G cryAB [2]
  binding site on R120G cryAB: binds a groove across the cryAB dimer interface
R120G cryAB [3]
  Kd: 10.1 ± 4.4 µM
cryAB
  aggregation of cryAB: significantly reduced the aggregation of cryAB
  cryAB solubility: improved cryAB solubility
α-crystallin; Age 66 days
  Percent difference in area between untreated and treated eyes, Mean: 177.2%
  Percent difference in area between untreated and treated eyes, Median: −20.2%
α-crystallin; Age 79 days
  Percent difference in area between untreated and treated eyes, Mean: 98.1%
  Percent difference in area between untreated and treated eyes, Median: 98.1%
α-crystallin; Age 184 days
  Percent difference in area between untreated and treated eyes, Mean: 61.4%
  Percent difference in area between untreated and treated eyes, Median: 61.4%
α-crystallin; Age 192 days
  Percent difference in area between untreated and treated eyes, Mean: 22.7%
  Percent difference in area between untreated and treated eyes, Median: 55.8%
α-crystallin; Age 200 days
  Percent difference in area between untreated and treated eyes, Mean: 38.7%
  Percent difference in area between untreated and treated eyes, Median: 31.8%
α-crystallin; Age 266 days
  Percent difference in area between untreated and treated eyes, Mean: 1376.3%
  Percent difference in area between untreated and treated eyes, Median: 679.0%
α-crystallin; All ages
  Percent difference in area between untreated and treated eyes, Mean: 381.2±974.6% and 381.2%
  Percent difference in area between untreated and treated eyes, Median: 63.3%
α-crystallin; eye drops 5 mM three times a week for two weeks, Wilcoxon signed rank
  area under the curve of α-crystallin, drug treated eyes versus fellow untreated eyes: statistically significantly higher
[4]
  cryAB solubility: significantly improved cryAB solubility
  lens transparency: improved lens transparency
  rescued cataract phenotypes (treated mice): 10/15
R120G cryAB [5]; [6]
  amyloid formation (electron microscopy): dramatically suppressed amyloid formation
  opacity of the R120G cryAB mixture (visual inspection): reduced the opacity
R120G cryAB [5]; pre-formed amyloids
  aggregation of pre-formed R120G cryAB amyloids: reversed the aggregation

## CC(C)CCC[C@@H](C)[C@H]1CC[C@H]2[C@@H]3CC=C4C[C@@H](O)CC[C@]4(C)[C@H]3CC[C@]12C [5-cholesten-3b-ol]
R120G cryAB [1]
  ACTIVITY (shift in thermal stability at 100 μM): −1.1 °C

## CC(C)CCC[C@@H](C)[C@H]1CC[C@H]2[C@@H]3CC[C@H]4C[C@@H](O)CC[C@]4(C)[C@H]3CC[C@]12C [5a-cholestan-3b-ol-6-one, (2R,5S,7S,15R)-5-hydroxy-2,15-dimethyl-14-(6-methylheptan-2-yl)tetracyclo [8.7.0.0^{2,7}.0^{11,15}] heptadecan-8-one]
R120G cryAB [1]
  ACTIVITY (shift in thermal stability at 100 μM): −3.0 °C

## CC(C)CCC[C@@H](C)[C@H]1CC[C@H]2[C@@H]3CC=C4C[C@@H](O)CC[C@]4(C)[C@H]3CC[C@]12C [cholesterol, reference compound]
R120G cryAB [1]; focused sterol collection
  activity in DSF: inactive
R120G cryAB [5]; [6]
  amyloid formation (electron microscopy): not

## C[C@]12CCC(=O)C[C@H]1CC[C@@H]1[C@@H]2CC[C@]2(C)[C@@H](O)CC[C@@H]12 [etiocholan-17b-ol-3-one]
R120G cryAB [1]
  ACTIVITY (shift in thermal stability at 100 μM): +1.7 °C

From US9675623B2, “Non-surgical method of treatment for cataract” (THE REGENTS OF THE UNIVERSITY OF MICHIGAN, priority 2012, dated 2017)
